Experimental data taken from article PMC6001238, “Iterative Chemical Engineering of Vancomycin Leads to Novel Vancomycin Analogs With a High in Vitro Therapeutic Index” (Frontiers in Microbiology, 2018).
≈ marks a conversion by molar mass, not a printed value. Where two headings read alike, the source gives them in different places.

What was measured:
[1] = system: E. faecalis VRE 6; test: MIC, broth microdilution, vancomycin-resistant E. faecalis VRE 6 (VanA); type: cell-based, Enterococcus faecalis; details: for MICvanc/MICi / MIC-fold improvement vs. vancomycin: ratio of MIC of vancomycin and MIC of analogue; for MIC: read-out: MIC; for MIC-fold improvement vs. vancomycin: VRE 6
Procedure, shortened: (§1)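 CLSI broth microdilution; water and uninoculated-broth controls; one arm supplemented with vancomycin, final 10 μM, given with analogue or control antibiotic.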

[2] = system: E. faecalis VSE 1; test: MIC, broth microdilution, vancomycin-sensitive E. faecalis (VSE 1); type: cell-based, Enterococcus faecalis; details: for MICvanc/MICi / MIC-fold improvement vs. vancomycin: ratio of MIC of vancomycin and MIC of analogue; for MIC: read-out: MIC; for MIC-fold improvement vs. vancomycin: VSE 1
Procedure, shortened: as §1

[3] = system: human cervix carcinoma (HeLa) cells; test: Cytostatic activity, HeLa cell proliferation; type: cell-based; details: mean ± SD of three experiments; highest concentration tested 250 µM; 4 days; read-out: Toxicity (IC50) HeLa
Procedure, shortened: (§2)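 Test compounds, serially diluted, received an equal volume of cell suspension at 300,000–500,000 cells/mL. After 37°C incubation (2 days for L1210, 3 for CEM, 4 for HeLa), cells were enumerated by Coulter counting and 50%-inhibitory concentrations calculated per cell type.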

[4] = system: S. aureus VRSA; test: MIC, broth microdilution, vancomycin-resistant S. aureus (VRSA); type: cell-based, Staphylococcus aureus; details: for MIC: Staphylococcus aureus VRSA, read-out: MIC; for MIC-fold improvement vs. vancomycin: VRSA, ratio of MIC of vancomycin and MIC of analogue
Procedure, shortened: as §1

[5] = system: L1210, CEM and HeLa cell lines; test: Cytostatic activity, average or summary over L1210, CEM and HeLa; type: cell-based
Procedure, shortened: as §2

[6] = system: S. aureus VISA/HIP5827; test: MIC, broth microdilution, vancomycin-intermediate S. aureus VISA HIP5827; type: cell-based, Staphylococcus aureus; details: for MIC: Staphylococcus aureus VISA/HIP5827, read-out: MIC; for MIC-fold improvement vs. vancomycin: VISA/HIP5827, ratio of MIC of vancomycin and MIC of analogue
Procedure, shortened: as §1

[7] = system: E. coli XL-1 blue MRF'; test: MIC, broth microdilution, E. coli XL-1 blue MRF'; type: cell-based, Escherichia coli; details: E. coli XL-1 blue MRF'; for MICvanc/MICi: ratio of MIC of vancomycin and MIC of analogue
Method: (§3) The minimum inhibitory concentration (MIC) was determined using the broth microdilution method according to the antimicrobial susceptibility testing standards of the clinical and laboratory standards institute ([Clinical and Laboratory Standards Institute [CLSI], 2012]). Ultrapure water and non-inoculated broth were used as controls. In one case, a final concentration of 10 μM vancomycin was included with the vancomycin analog or control antibiotic.

[8] = system: E. faecalis VRE 53; test: MIC, broth microdilution, vancomycin-resistant E. faecalis VRE 53 (VanA); type: cell-based, Enterococcus faecalis; details: for MICvanc/MICi / MIC-fold improvement vs. vancomycin: ratio of MIC of vancomycin and MIC of analogue; for MIC: read-out: MIC; for MIC-fold improvement vs. vancomycin: VRE 53
Procedure, shortened: as §1

[9] = system: S. aureus VSSA (ATCC 6538); test: MIC, broth microdilution, vancomycin-sensitive S. aureus (VSSA/MSSA, ATCC 6538); type: cell-based, Staphylococcus aureus; details: for MIC: Staphylococcus aureus VSSA, read-out: MIC; for MIC-fold improvement vs. vancomycin: VSSA, ratio of MIC of vancomycin and MIC of analogue
Procedure, shortened: as §1

[10] = system: human T-lymphocyte (CEM) cells; test: Cytostatic activity, CEM cell proliferation; type: cell-based; details: mean ± SD of three experiments; highest concentration tested 250 µM; 3 days; read-out: Toxicity (IC50) CEM
Procedure, shortened: as §2

[11] = system: B. subtilis PSB3; test: MIC, broth microdilution, B. subtilis PSB3; type: cell-based, Bacillus subtilis; details: for MICvanc/MICi: ratio of MIC of vancomycin and MIC of analogue
Method: as §3

[12] = system: MRSA KS89; test: MIC, broth microdilution, MRSA KS89; type: cell-based, Staphylococcus aureus; details: for MIC-fold improvement vs. vancomycin: MRSA KS8, ratio of MIC of vancomycin and MIC of analogue; for MIC: Staphylococcus aureus MRSA KS8, read-out: MIC
Procedure, shortened: as §1

[13] = system: Murine leukemia (L1210) cells; test: Cytostatic activity, L1210 cell proliferation; type: cell-based; details: mean ± SD of three experiments; highest concentration tested 250 µM; 2 days; read-out: Toxicity (IC50) L1210
Procedure, shortened: as §2

[14] = system: E. faecalis VRE 37; test: MIC, broth microdilution, vancomycin-resistant E. faecalis VRE 37 (VanA); type: cell-based, Enterococcus faecalis; details: for MIC: Enterococcus faecalis VRE 37 (vancomycin-resistant), read-out: MIC
Procedure, shortened: as §1

[15] = system: E. faecalis VRE 29; test: MIC, broth microdilution, vancomycin-resistant E. faecalis VRE 29 (VanA); type: cell-based, Enterococcus faecalis; details: for MIC: Enterococcus faecalis VRE 29 (vancomycin-resistant), read-out: MIC; for MIC-fold improvement vs. vancomycin: VRE 29, ratio of MIC of vancomycin and MIC of analogue
Procedure, shortened: as §1

[16] = system: MRSA KS6; test: MIC, broth microdilution, MRSA KS6; type: cell-based, Staphylococcus aureus; details: for MIC-fold improvement vs. vancomycin: MRSA KS6, ratio of MIC of vancomycin and MIC of analogue; for MIC: Staphylococcus aureus MRSA KS6, read-out: MIC
Procedure, shortened: as §1

[17] = system: MRSA KS1; test: MIC, broth microdilution, MRSA KS1; type: cell-based, Staphylococcus aureus; details: for MIC-fold improvement vs. vancomycin: MRSA KS1, ratio of MIC of vancomycin and MIC of analogue; for MIC: Staphylococcus aureus MRSA KS1, read-out: MIC
Procedure, shortened: as §1

[18] = system: MRSA KS2; test: MIC, broth microdilution, MRSA KS2; type: cell-based, Staphylococcus aureus; details: for MIC-fold improvement vs. vancomycin: MRSA KS2, ratio of MIC of vancomycin and MIC of analogue; for MIC: Staphylococcus aureus MRSA KS2, read-out: MIC
Procedure, shortened: as §1

[19] = Enterococcus faecalis VRE 6 (vancomycin-resistant)
[20] = Enterococcus faecalis VSE 1 (vancomycin-sensitive)
[21] = average of L1210, CEM and HeLa, read-out: Toxicity (IC50) Average
[22] = Enterococcus faecalis VRE 53 (vancomycin-resistant)

Structure (SMILES)	MICvanc/MICi ([1]; E. faecalis VRE 6)	MIC ([1]; E. faecalis VRE 6)	MIC [1, 19]	MIC-fold improvement vs. vancomycin [1]	MICvanc/MICi ([2]; E. faecalis VSE 1)	MIC ([2]; E. faecalis VSE 1)	MIC [2, 20]	MIC-fold improvement vs. vancomycin [2]	IC50 [3]	MIC [4]	MIC-fold improvement vs. vancomycin [4]	IC50 [5, 21]	MIC [6]	MIC-fold improvement vs. vancomycin [6]	MIC [7]	MICvanc/MICi [7]	MICvanc/MICi ([8]; E. faecalis VRE 53)	MIC ([8]; E. faecalis VRE 53)	MIC [8, 22]	MIC-fold improvement vs. vancomycin [8]	also measured
C#Cc1ccc2cc(C(=O)NCCCNC(=O)[C@H]3NC(=O)[C@H]4NC(=O)[C@H](NC(=O)[C@@H]5NC(=O)[C@H](CC(N)=O)NC(=O)[C@H](NC(=O)[C@@H](CC(C)C)NC)[C@H](O)c6ccc(c(Cl)c6)Oc6cc5cc(c6O[C@@H]5O[C@H](CO)[C@@H](O)[C@H](O)[C@H]5O[C@H]5C[C@](C)(N)[C@H](O)[C@H](C)O5)Oc5ccc(cc5Cl)[C@H]4O)c4ccc(O)c(c4)-c4c(O)cc(O)cc43)ccc2c1 [Vanc-T]	64	3.13 µM (≈ 5.27 µg/mL)	3.13 µM (≈ 5.27 µg/mL)	64	32	0.05 µM (≈ 0.0842 µg/mL)	0.05 µM (≈ 0.0842 µg/mL)	32	75 ± 20 µM	1.56 µM (≈ 2.63 µg/mL)	64	71 µM	1.56 µM (≈ 2.63 µg/mL)	4	25 µM (≈ 42.1 µg/mL)	4	128	3.13 µM (≈ 5.27 µg/mL)	3.13 µM (≈ 5.27 µg/mL)	128	MIC [9]: 0.10 µM (≈ 0.168 µg/mL); MIC-fold improvement vs. vancomycin [9]: 8; IC50 [10]: 60 ± 10 µM; MIC [11]: 0.39 µM (≈ 0.657 µg/mL); MICvanc/MICi [11]: 1; MIC-fold improvement vs. vancomycin [12]: 4; MIC [12]: 0.20 µM (≈ 0.337 µg/mL); IC50 [13]: 77 ± 17 µM; MIC [14]: 25 µM (≈ 42.1 µg/mL); MIC [15]: 12.5 µM (≈ 21 µg/mL); MIC-fold improvement vs. vancomycin [15]: 32; MIC-fold improvement vs. vancomycin [16]: 2; MIC [16]: 0.39 µM (≈ 0.657 µg/mL); MIC-fold improvement vs. vancomycin [17]: 4; MIC [17]: 0.20 µM (≈ 0.337 µg/mL); MIC-fold improvement vs. vancomycin [18]: 4; MIC [18]: 0.20 µM (≈ 0.337 µg/mL)
C#Cc1ccc(/C=C/C(=O)NCCNC(=O)[C@H]2NC(=O)[C@H]3NC(=O)[C@H](NC(=O)[C@@H]4NC(=O)[C@H](CC(N)=O)NC(=O)[C@H](NC(=O)[C@@H](CC(C)C)NC)[C@H](O)c5ccc(c(Cl)c5)Oc5cc4cc(c5O[C@@H]4O[C@H](CO)[C@@H](O)[C@H](O)[C@H]4O[C@H]4C[C@](C)(N)[C@H](O)[C@H](C)O4)Oc4ccc(cc4Cl)[C@H]3O)c3ccc(O)c(c3)-c3c(O)cc(O)cc32)cc1 [Vanc-Q]	32	6.25 µM (≈ 10.3 µg/mL)	6.25 µM (≈ 10.3 µg/mL)	32	16	0.10 µM (≈ 0.165 µg/mL)	0.10 µM (≈ 0.165 µg/mL)	16	> 250 µM	12.5 µM (≈ 20.6 µg/mL)	8	> 250 µM	1.56 µM (≈ 2.57 µg/mL)	4	12.5 µM (≈ 20.6 µg/mL)	8	64	6.25 µM (≈ 10.3 µg/mL)	6.25 µM (≈ 10.3 µg/mL)	64	IC50 ([5]; summary over the three cell lines, read-out: IC50 (L1210, CEM, HeLa), depending on the cell line used): > 250 µM; MIC [9]: 0.20 µM (≈ 0.329 µg/mL); MIC-fold improvement vs. vancomycin [9]: 4; IC50 [10]: > 250 µM; MIC [11]: 0.39 µM (≈ 0.642 µg/mL); MICvanc/MICi [11]: 1; MIC-fold improvement vs. vancomycin [12]: 1; MIC [12]: 0.78 µM (≈ 1.28 µg/mL); IC50 [13]: > 250 µM; MIC [14]: 50 µM (≈ 82.3 µg/mL); MIC-fold improvement vs. vancomycin ([14]; VRE 37, ratio of MIC of vancomycin and MIC of analogue): 16; MIC [15]: 25 µM (≈ 41.1 µg/mL); MIC-fold improvement vs. vancomycin [15]: 16; MIC-fold improvement vs. vancomycin [16]: 1; MIC [16]: 0.78 µM (≈ 1.28 µg/mL); MIC-fold improvement vs. vancomycin [17]: 2; MIC [17]: 0.39 µM (≈ 0.642 µg/mL); MIC-fold improvement vs. vancomycin [18]: 0.5; MIC [18]: 1.56 µM (≈ 2.57 µg/mL)
